Results from publication PMC4911353, “Pharmacologic Inhibition of Host Phosphodiesterase-4 Improves Isoniazid-Mediated Clearance of Mycobacterium tuberculosis” (Frontiers in Immunology, 2016).

Test system: Mtb-infected mouse lungs
Assay: Genome-wide lung transcriptome (microarray, IPA network/GO analysis) of Mtb-infected mice
Format: in vivo

CCOc1cc([C@@H](CS(C)(=O)=O)N2Cc3cccc(NC(=O)C4CC4)c3C2=O)ccc1OC [CC-11050, N-[2-[(1S)-1-(3-ethoxy-4-methoxyphenyl)-2-(methylsulfonyl)ethyl]-2,3-dihydro-3-oxo-1H-isoindol-4-yl]-(9Cl) cyclopropanecarboxamide]
1.206: ECH1 expression (TNF-a regulon network)
1.459: CDO1 expression (TNF-a regulon network)
1.328: EMP1 expression (TNF-a regulon network)
1.211: CPT1A expression (TNF-a regulon network)
1.167: ACE expression (TNF-a regulon network)
-1.286: mir-15 expression (Lung inflammation network)
-1.412: DENND4A expression (TNF-a regulon network)
1.114: BCL2L13 expression (TNF-a regulon network)
0: TIMP1 expression (Lung inflammation network) | TLR2 expression (Lung inflammation network) | TLR4 expression (Lung inflammation network) | TNFAIP8L2 expression (Lung inflammation network) | TNFRSF1B expression (Lung inflammation network) | TNFRSF4 expression (Lung inflammation network) | TNFRSF9 expression (Lung inflammation network) | TNFRSF25 expression (Lung inflammation network) | TNFSF15 expression (Lung inflammation network) | TOP2A expression (Lung inflammation network) | TRAF3IP2 expression (Lung inflammation network) | TRAF6 expression (Lung inflammation network) | TRPM2 expression (Lung inflammation network) | mir-19 expression (Lung inflammation network) | mir-25 expression (Lung inflammation network) | mir-27 expression (Lung inflammation network) | mir-30 expression (Lung inflammation network) | mir-155 expression (Lung inflammation network) | mir-181 expression (Lung inflammation network) | ABCC1 expression (TNF-a regulon network) | ABCC3 expression (TNF-a regulon network) | ABCD2 expression (TNF-a regulon network) | ABCG2 expression (TNF-a regulon network) | ABR expression (TNF-a regulon network) | ABTB2 expression (TNF-a regulon network) | ACADM expression (TNF-a regulon network) | ACOX1 expression (TNF-a regulon network) | ACSL1 expression (TNF-a regulon network) | ADAM8 expression (TNF-a regulon network) | ADAMTS5 expression (TNF-a regulon network) | ADIPOQ expression (TNF-a regulon network) | ADM expression (TNF-a regulon network) | ADRB3 expression (TNF-a regulon network) | AEBP1 expression (TNF-a regulon network) | AGT expression (TNF-a regulon network) | AK2 expression (TNF-a regulon network) | ALAD expression (TNF-a regulon network) | ALDH3A1 expression (TNF-a regulon network) | ALOX5 expression (TNF-a regulon network) | ANGPT2 expression (TNF-a regulon network) | ANXA11 expression (TNF-a regulon network) | AOC3 expression (TNF-a regulon network) | APLN expression (TNF-a regulon network) | APOBEC3B expression (TNF-a regulon network) | APOC2 expression (TNF-a regulon network) | AQP1 expression (TNF-a regulon network) | AQP7 expression (TNF-a regulon network) | ASGR1 expression (TNF-a regulon network) | ASS1 expression (TNF-a regulon network) | AVPR1A expression (TNF-a regulon network) | Abcb1b expression (TNF-a regulon network) | Aldh1a7 expression (TNF-a regulon network) | B2M expression (TNF-a regulon network) | B4GALT1 expression (TNF-a regulon network) | BCKDHA expression (TNF-a regulon network) | BCKDHB expression (TNF-a regulon network) | BCL2A1 expression (TNF-a regulon network) | BCL3 expression (TNF-a regulon network) | BGN expression (TNF-a regulon network) | BIRC2 expression (TNF-a regulon network) | BIRC3 expression (TNF-a regulon network) | BIRC5 expression (TNF-a regulon network) | BMP4 expression (TNF-a regulon network) | BMPR1A expression (TNF-a regulon network) | BST2 expression (TNF-a regulon network) | BTG1 expression (TNF-a regulon network) | BUB1B expression (TNF-a regulon network) | C3 expression (TNF-a regulon network) | C10orf10 expression (TNF-a regulon network) | C11orf82 expression (TNF-a regulon network) | C21orf33 expression (TNF-a regulon network) | CASP4 expression (TNF-a regulon network) | CASP6 expression (TNF-a regulon network) | CASP7 expression (TNF-a regulon network) | CAT expression (TNF-a regulon network) | CCL1 expression (TNF-a regulon network) | CCL4 expression (TNF-a regulon network) | CCL7 expression (TNF-a regulon network) | CCL19 expression (TNF-a regulon network) | CCL20 expression (TNF-a regulon network) | CCR8 expression (TNF-a regulon network) | CD3E expression (TNF-a regulon network) | CD5 expression (TNF-a regulon network) | CD28 expression (TNF-a regulon network) | CD40 expression (TNF-a regulon network) | CD69 expression (TNF-a regulon network) | CD80 expression (TNF-a regulon network) | CD82 expression (TNF-a regulon network) | CD83 expression (TNF-a regulon network) | CD247 expression (TNF-a regulon network) | CD274 expression (TNF-a regulon network) | CDC25C expression (TNF-a regulon network) | CDH2 expression (TNF-a regulon network) | CDH13 expression (TNF-a regulon network) | CDKN2C expression (TNF-a regulon network) | CEBPD expression (TNF-a regulon network) | CELF1 expression (TNF-a regulon network) | CFB expression (TNF-a regulon network) | CFD expression (TNF-a regulon network) | CFLAR expression (TNF-a regulon network) | CH25H expression (TNF-a regulon network) | CHST2 expression (TNF-a regulon network) | CHST4 expression (TNF-a regulon network) | CIB2 expression (TNF-a regulon network) | CIDEC expression (TNF-a regulon network) | CLDN11 expression (TNF-a regulon network) | CLEC4E expression (TNF-a regulon network) | CLEC5A expression (TNF-a regulon network) | COL1A2 expression (TNF-a regulon network) | COTL1 expression (TNF-a regulon network) | CPT2 expression (TNF-a regulon network) | CRADD expression (TNF-a regulon network) | CREM expression (TNF-a regulon network) | CSF1R expression (TNF-a regulon network) | CSF1 expression (TNF-a regulon network) | CST7 expression (TNF-a regulon network) | CTNNB1 expression (TNF-a regulon network) | CTSB expression (TNF-a regulon network) | CTSC expression (TNF-a regulon network) | CTSF expression (TNF-a regulon network) | CTSZ expression (TNF-a regulon network) | CX3CR1 expression (TNF-a regulon network) | CXCL2 expression (TNF-a regulon network) | CXCL6 expression (TNF-a regulon network) | CXCL9 expression (TNF-a regulon network) | CXCL10 expression (TNF-a regulon network) | CXCL11 expression (TNF-a regulon network) | CXCL13 expression (TNF-a regulon network) | CXCL16 expression (TNF-a regulon network) | CXCR2 expression (TNF-a regulon network) | CYBA expression (TNF-a regulon network) | CYP1A1 expression (TNF-a regulon network) | CYP2E1 expression (TNF-a regulon network) | CYP7B1 expression (TNF-a regulon network) | CYTH3 expression (TNF-a regulon network) | CYTIP expression (TNF-a regulon network) | DAG1 expression (TNF-a regulon network) | DAXX expression (TNF-a regulon network) | DBI expression (TNF-a regulon network) | DBT expression (TNF-a regulon network) | DCN expression (TNF-a regulon network) | DDX58 expression (TNF-a regulon network) | DHRS3 expression (TNF-a regulon network) | DNMT1 expression (TNF-a regulon network) | DPP4 expression (TNF-a regulon network) | DUSP2 expression (TNF-a regulon network) | DUSP5 expression (TNF-a regulon network) | DUSP14 expression (TNF-a regulon network) | EBI3 expression (TNF-a regulon network) | EDN1 expression (TNF-a regulon network) | EFNA1 expression (TNF-a regulon network) | EFNB2 expression (TNF-a regulon network) | EGR2 expression (TNF-a regulon network) | EIF2AK2 expression (TNF-a regulon network) | ENG expression (TNF-a regulon network) | ENPP3 expression (TNF-a regulon network)
1.258: EGFR expression (TNF-a regulon network)
1.158: ARF4 expression (TNF-a regulon network)
1.8298: ANGPTL4 expression (TNF-a regulon network)
1.386: BHLHE40 expression (TNF-a regulon network)
